Source: patent US20240277739A1, “NUTRITONAL COMPOSITIONS FOR GUT BARRIER FUNCTION” (N.V. Nutricia, priority 2021, published 2024)

Assays:
Caco-2 cell monolayer [1] = experiment: Lucifer yellow (LY) paracellular flux across Caco-2 monolayer, DON-induced impairment; assay type: cell-based, human; conditions: for effect on DON-induced loss of epithelial barrier integrity, LY flux (FIGS. 1C, 1D), in words: 0.75 wt. % GL, 24 h pretreatment, then DON 4.2 μM 24 h
Protocol: (§1) beta1,3′-galactosyl-lactose (beta3′-GL), beta1,4′-galactosyllactose (beta4′-GL) and beta1,6′-galactosyl-lactose (beta6′-GL) were obtained from Carbosynth (Berkshire, UK), alpha1,3′-galactosyl-lactose (alpha3′-GL) was obtained from Elicityl (Crolles, France). Purified deoxydivalenol (DON) (D0156; Sigma Aldrich, St Luis, MO, USA) was dissolved in pure ethanol and stored at −20° C. Human epithelial colorectal adenocarcinoma (Caco-2) cells were obtained from American Type Tissue Collection (Code HTB-37) (Manasse, VA, USA, passage 90-102).
(§2) Caco-2 cells were used according to established methods. In brief: cells were cultured in Dulbecco's modified Eagle medium (DMEM) and seeded at a density of 0.3×10^5 cells into 0.3 cm^2 high pore density (0.4 μm) inserts with a polyethylene terephthalate membrane (BD Biosciences, Franklin Lakes, NJ, USA) placed in a 24-well plate. The Caco-2 cells were maintained in a humidified atmosphere of 95% air and 5% CO2 at 37° C. After 17-19 days of culturing, a confluent monolayer was obtained with a mean Transepithelial electrical resistance (TEER) exceeding 400 Ω cm^2 measured by a Millicell-Electrical Resistance System voltohm-meter (Millipore, Temecula, CA, USA).
(§3) Caco-2 cell monolayers were thus grown in a transwell system, which is a model for intestinal barrier function. The monolayers were pretreated for 24 h with different GLs, including beta3′-GL, alpha3′-GL, beta4′-GL and beta6′-GL in a concentration of 0.75 wt. % of the GL, before being exposed to the fungal toxin deoxynivalenol (DON), which is a trigger and model compound to impair intestinal barrier. DON was diluted to a final concentration of 4.2 μM in complete cell medium and added to the apical side as well as to the basolateral side of the transwell inserts. […] Incubation with DON was 24 h.
(§4) Measurements of the transepithelial electrical resistance (TEER) and lucifer yellow (LY) permeability were conducted to investigate barrier integrity. For TEER measurements a Millicel-ERS voltohmmeter connected to a pair of chopsticks electrodes was used to measure the TEER values. Results are expressed as a percentage of the initial value. For paracellular tracer flux assay the membrane impermeable lucifer yellow (LY) (Sigma, St Luis, MO, USA) was added in a concentration of 16 μg/ml to the apical compartment in the transwell plate for 4 h, and the paracellular flux was determined by measuring the fluorescence intensity in the basolateral compartment with a spectrophotofluorimeter (FLUOstar Optima, BMG Labtech, Offenburg, Germany) set at excitation and emission wavelengths of 410 and 520 nm, respectively. Release of interleukin-8 (IL-8 or CXCL8), which is a typical marker for inflammation, was quantified in the medium of the apical side and the basolateral side of the Caco-2 transwell inserts in response to the treatments. CXCL8 concentrations were measured by using the human IL-8 ELISA assay (BD Biosciences, Pharmingem, San Diego, CA, USA) according to manufacturer's instructions. For more details on materials and methods see Akbari et al, 2016, Eur J Nutr. 56(5):1919-1930.
(§5) For TOS concentrations of 0.25 wt. % (TOS 0.25) and 0.5 wt. % (TOS 0.5) were tested.
Barrier function experiments were performed using the method as described in example 3. Oleic acid (OA) and palmitic acid were obtained from Sigma-Aldrich. […]

Caco-2 cell monolayer [2] = experiment: TEER of Caco-2 monolayer, DON-induced impairment of barrier integrity; assay type: cell-based, human; conditions: for effect on DON-induced loss of epithelial barrier integrity, TEER (FIGS. 1A, 1B), in words: 0.75 wt. % GL, 24 h pretreatment, then DON 4.2 μM 24 h; for TEER in the presence of DON (FIG. 3), single ingredient, in words: DON 4.2 μM, 0.75 wt % beta3′-GL or 600 μM fatty acid alone
Protocol: as §1, §2, §3, §4, §5
(§6) Barrier function experiments were performed using the method as described in example 3. Oleic acid (OA) and palmitic acid were obtained from Sigma-Aldrich. Palmitic acid was coupled to fatty acid free Bovine Serum Albumin (BSA, Roche) to make a 6:1 BSA-palmitic acid conjugate solution, which is needed to dissolve palmitic acid in culture medium and therefore common practice in the field (reference Alsabeeh et al, Biochim. Biophys Acta. 2018 February; 1863(2): 143-151). Throughout this document this conjugate solution will be abbreviated as PA.

[3] = test system: infant microbiota (pooled fecal samples from 3 healthy infants); experiment: Fermentation of galactosyllactoses by infant fecal microbiota (i-Screen anaerobic colon model); parameters: species or system human; acetate / lactate: unit not given here; conditions: for acetate / lactate: t = 24 h
Protocol: The effect of pure 3′-GL, 4′-GL, and 6′-GL of the three galactosyllactoses functionality (pH, lactate, acetate levels) was evaluated. Beta1,3-galactosyllactose (beat3′-GL), beta1,4-galactosyllactose (beta4′-GL) and beta1,6-galactosyllactose (beta6′-GL) were obtained from Carbosynth (Berkshire, UK) Measurements of all parameters were performed after a 24-hour incubation in the high-throughput anaerobic colon model, i-Screen™ (TNO, Zeist, the Netherlands).
Fecal samples from 3 healthy infants (aged 1-4 months) were pooled and activated for 4 hours in a modified standard ileal efflux medium (pH 6.0) at 37° C. under anaerobic conditions. Next, each GL was added. After an incubation for 24 hours at 37° C. under anaerobic conditions, samples were collected for further analysis and pH levels were immediately measured using a pH meter MultiCal pH 526 (WTW, Weilheim, Germany). The samples were centrifuged at 4,000 g for 5 minutes and the supernatant was filter sterilized using 0.45 μm filters. For the SCFA analysis, a mixture of formic acid ([…]), methanol and 2-ethyl butyric acid (internal standard, 2 mg/ml in methanol) was added to the filtered supernatant. A 3 μl sample with a split ratio of 75.0 was injected on a GC-column (ZB-5HT inferno, ID 0.52 mm, film thickness 0.10 μm; Zebron; phenomenex, USA) in a Shimadzu GC-2014 gas chromatograph. The levels of acetic acid and lactic acid were measured. For lactate analysis, the total of D- and L-lactate was determined the filtered supernatant by the Arena 20XL analyser. This assay is based on the D- and L-lactic acid assay kits (Thermo Fisher Scientific oy, www.e-labeling.eu/TSF9843061FU and www.e-labeling.eu/TSF9843081FU). The assay was performed following the manufacturer's instructions with one adaptation: the reagents DLac RI and LLac RI from the two kits were mixed in a 1:1 ratio to detect both L and D isomers of lactic acid simultaneously. Calibration of the assay was done with an ‘Acid combination standard’ (order number 984382) containing both L-lactic acid and D-lactic acid.

Caco-2 cell monolayer [4] = experiment: TEER of Caco-2 monolayer with OA, PA, beta3′-GL and combinations (no DON); assay type: cell-based, human; conditions: for effect on TEER at 100 μM fatty acid, in words: data not shown
Protocol: as §2, §4, §6
Tables 5a and 5b show the effects of OA and PA and beta3′-GL and its combinations on the intestinal barrier function as measured by TEER.

[5] = test system: T84 human intestinal epithelial cells; experiment: TEER of T84 monolayers pre-incubated with fatty acids, SCFA mix or combination; assay type: cell-based; conditions: for % TEER (24 h): relative to medium control at 24 h; for increase of gut barrier function (TEER) versus control: fatty acid 50 μM in combination with SCFA 40 mM; for increase of gut barrier function (TEER) versus control / change of gut barrier function (TEER) versus control: 24 h; for increase of gut barrier function expected for an additive effect: fatty acid 50 μM plus SCFA 40 mM; for change of gut barrier function (TEER) versus control: single ingredient: fatty acid 50 μM or SCFA mix 40 mM
Excerpt: The effect of palmitic acid and oleic acid combined with a mixture of short chain fatty acids (SCFA mix) having a concentration profile that is typical for fermentation of a mixture of galacto-oligosaccharides (GOS) derived from VivinalGOS and long chain fructo-oligosaccharides (RaftilineHP) in a ratio of 9/1 (w/w) on barrier permeability was investigated. The concentration profiles of SCFA is as disclosed in Example 3 of EP2100520 (incorporated by reference herein), specifically as shown in FIG. 3A of EP2100520 (incorporated by reference herein) (see second bar in FIG. 3A), i.e. about 75% being acetic acid. Oleic acid and palmitic acid were obtained from Sigma-Aldrich and coupled to fatty acid free Bovine Serum Albumin (BSA, Sigma-Aldrich) prior to cell treatment.
T84 human intestinal epithelial cells are commonly used to study intestinal barrier integrity in vitro. T84 cells (ATCC, USA) were cultured on 12 mm transwell inserts (0.4 μm, Corning Costrar, USA) in DMEM-F12 glutamax with penicillin-streptomycin (100 IU/ml), supplemented with […]. T84 cells were used 14 days after reaching confluence. Monolayers of T84 cultured on transwell filters were pre-incubated with fatty acids, SCFA mix or a combination thereof for a period of 24 hours.
Epithelial barrier integrity was assessed by measuring transepithelial resistance (TEER; Ω×cm^2) with the epithelial volt-ohm meter (Millicell ERS-2; Millipore USA). TEER measurements were performed at 0, 24, h of incubation. TEER values of the fatty acids (i.e. SCFA, OA, PA) are expressed relative to the medium control TEER values at 24 h.

[6] = test system: interleukin-8 (IL-8 or CXCL8) release; experiment: DON-induced IL-8 (CXCL8) release from Caco-2 cells, ELISA; assay type: cell-based, human; conditions: DON 4.2 μM alone
Protocol: as §1
Caco-2 cells were used according to established methods. […] After 17-19 days of culturing, a confluent monolayer was obtained with a mean Transepithelial electrical resistance (TEER) exceeding 400 Ω cm^2 measured by a Millicell-Electrical Resistance System voltohm-meter (Millipore, Temecula, CA, USA). […]
Measurements of the transepithelial electrical resistance (TEER) and lucifer yellow (LY) permeability were conducted to investigate barrier integrity. […] Results are expressed as a percentage of the initial value. […] Release of interleukin-8 (IL-8 or CXCL8), which is a typical marker for inflammation, was quantified in the medium of the apical side and the basolateral side of the Caco-2 transwell inserts in response to the treatments. […]

[7] = fatty acid 50 μM + SCFA mix 40 mM
[8] = fatty acid 50 μM, SCFA mix 0 mM

Compound | effect on DON-induced loss of epithelial barrier integrity, LY flux (FIGS. 1C, 1D), in words (Caco-2 cell monolayer [1]) | effect on DON-induced loss of epithelial barrier integrity, TEER (FIGS. 1A, 1B), in words (Caco-2 cell monolayer [2]) | acetate ([3]; 3 mg/ml) | lactate ([3]; 3 mg/ml) | acetate ([3]; 9 mg/ml) | lactate ([3]; 9 mg/ml) | TEER in the presence of DON (FIG. 3), single ingredient, in words (Caco-2 cell monolayer [2]) | other results
OC[C@H]1O[C@@H](O[C@@H]2[C@H](O)[C@@H](O)[C@H](O[C@H]3[C@H](O)[C@@H](O)C(O)O[C@@H]3CO)O[C@@H]2CO)[C@H](O)[C@@H](O)[C@H]1O (stereo partly drawn) [beta4′-GL, Gal (beta 1-4)-Gal (beta 1-4)-Glc] | did not show a significant effect | did not show a significant effect | 52.2 | 0.0 | 65.4 | 3.6 |  | 
OC[C@H]1O[C@H](O[C@H]2[C@@H](O)[C@@H](CO)O[C@@H](O[C@H]3[C@H](O)[C@@H](O)C(O)O[C@@H]3CO)[C@@H]2O)[C@H](O)[C@@H](O)[C@H]1O (stereo partly drawn) [alpha3′-GL, Gal (alpha 1-3)-Gal (beta 1-4)-Glc] | did not prevent the DON-induced disrupted intestinal barrier | did not prevent the DON-induced disrupted intestinal barrier |  |  |  |  |  | 
OC[C@H]1O[C@@H](OC[C@H]2O[C@@H](O[C@H]3[C@H](O)[C@@H](O)C(O)O[C@@H]3CO)[C@H](O)[C@@H](O)[C@H]2O)[C@H](O)[C@@H](O)[C@H]1O (stereo partly drawn) [beta6′-GL, Gal (beta 1-6) Gal (beta 1-4)-Glc] | did not show a significant effect | did not show a significant effect | 51.9 | 0.0 | 74.3 | 2.7 |  | 
Gal (beta 1-3)-Gal (beta 1-4)-Glc [beta3′-GL] | reduction in the DON-affected LY flux | increased TEER values | 61.3 | 0.0 | 77.1 | 1.3 | somewhat higher than in the control | beta3′-GL concentration at which the effect on gut barrier function is observed (Caco-2 cell monolayer [2]; beta3′-GL content of the TOS tested, DON model): lower than 0.17 wt. %; pH, acetate and lactate after fermentation, in words ([3]; 24 h incubation): the highest levels of acetate and lactate and the lowest pH level; % TEER (24 h) (Caco-2 cell monolayer [4]; Table 5a: beta3′GL 0.75 w/v %, oleic acid 0, relative to the medium control): 117%; % TEER (24 h) (Caco-2 cell monolayer [4]; Table 5b: 3′GL 0.75, palmitic acid 0): 129%
CCCCCCCC/C=C\CCCCCCCC(=O)O [OA, oleic acid] |  |  |  |  |  |  | somewhat higher than in the control | % TEER (24 h) [5, 7]: 210%; increase of gut barrier function (TEER) versus control [5]: 110%; increase of gut barrier function expected for an additive effect [5]: 94%; % TEER (24 h) [5, 8]: 134%; change of gut barrier function (TEER) versus control [5]: 34%; effect on TEER at 100 μM fatty acid, in words (Caco-2 cell monolayer [4]): improving effect on TEER was also observed; % TEER (24 h) (Caco-2 cell monolayer [4]; Table 5a: oleic acid 600 μM, beta3′GL 0, relative to the medium control): 138%
CC1=C[C@H]2O[C@@H]3[C@H](O)C[C@](C)([C@@]2(CO)[C@H](O)C1=O)[C@]31CO1 [DON, deoxynivalenol] |  |  |  |  |  |  |  | CXCL8 (IL-8) release (FIG. 2), in words [6]: increased CXCL8 (IL-8) release
CCCCCCCCCCCCCCCC(=O)O [PA, palmitic acid] |  |  |  |  |  |  | did not improve the TEER in the presence of DON | % TEER (24 h) [5, 7]: 143%; increase of gut barrier function (TEER) versus control [5]: 43%; increase of gut barrier function expected for an additive effect [5]: 54%; % TEER (24 h) [5, 8]: 94%; change of gut barrier function (TEER) versus control [5]: −6%; gut barrier function by LYF assay, fatty acid alone, in words (Caco-2 cell monolayer [1]; DON model, data not shown): A similar effect was observed; effect on TEER at 100 μM fatty acid, in words (Caco-2 cell monolayer [4]): This effect on TEER was also observed; % TEER (24 h) (Caco-2 cell monolayer [4]; Table 5b: palmitic acid 600 μM, 3′GL 0): 69%
